From the supplement of paper PMC10307832

Assays:
Assay in all cases: relative viability (nuclei count vs DMSO), 5 days (fraction); higher = more cells survive
[1] = compound: O=c1ncccn1[C@@H]1O[C@H](CO)[C@@H](O)[C@H]1O [Zebularine] + Cc1cc(Nc2cc(N3CCN(C)CC3)nc(Sc3ccc(NC(=O)C4CC4)cc3)n2)n[nH]1 [Tozasertib] (partner 0.1 µM)
Outline: (§1)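 Relative viability divides the nuclei count in treated wells by that in vehicle wells. Lung cancer cell lines were seeded in 1536-well plates, dosed by pin tool the next day, and fixed and stained after 5 days in one step with final 0.05% Triton X-100, 1% formaldehyde and 1 ug/ml Hoechst. Dosing was a single drug or a fixed anchor-drug dose plus five library-drug doses (not always all listed) in √10 steps, and values are medians of duplicate plates imaged at 4×.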

[2] = compound: CC(C)CCN1c2nc(Nc3cc(F)c(O)c(F)c3)ncc2N(C)C(=O)C1C [BI-D1870] + O=C(c1cc(Cc2n[nH]c(=O)c3ccccc23)ccc1F)N1CCN(C(=O)C2CC2)CC1 [Olaparib] (partner 8 µM)
Outline: as §1

[3] = compound: O=c1ncccn1[C@@H]1O[C@H](CO)[C@@H](O)[C@H]1O [Zebularine] + Nc1ncn([C@H]2C[C@H](O)[C@@H](CO)O2)c(=O)n1 [Decitabine] (partner 2 µM)
Outline: as §1

[4] = compound: CC(C)CCN1c2nc(Nc3cc(F)c(O)c(F)c3)ncc2N(C)C(=O)C1C [BI-D1870] + CS(=O)(=O)CCNCc1ccc(-c2ccc3ncnc(Nc4ccc(OCc5cccc(F)c5)c(Cl)c4)c3c2)o1 [Lapatinib] (partner 2 µM)
Outline: as §1

Cell Line	relative viability ([1]; first compound 1 µM)	relative viability ([1]; first compound 3.162 µM)	relative viability ([1]; first compound 10 µM)	relative viability ([1]; first compound 31.62 µM)	relative viability ([1]; first compound 100 µM)	relative viability ([2]; first compound 0.04 µM)	relative viability ([2]; first compound 0.1265 µM)	relative viability ([2]; first compound 0.4 µM)	relative viability ([2]; first compound 1.265 µM)	relative viability ([2]; first compound 4 µM)	relative viability ([3]; first compound 1 µM)	relative viability ([3]; first compound 3.162 µM)	relative viability ([3]; first compound 10 µM)	relative viability ([3]; first compound 31.62 µM)	relative viability ([3]; first compound 100 µM)	relative viability ([4]; first compound 0.04 µM)	relative viability ([4]; first compound 0.1265 µM)	relative viability ([4]; first compound 0.4 µM)	relative viability ([4]; first compound 1.265 µM)	relative viability ([4]; first compound 4 µM)
NCI-H1650	0.509	0.308	0.325	0.361	0.341	0.722	0.767	0.788	0.943	0.817	0.347	0.305	0.335	0.378	0.269	0.822	0.715	0.721	0.753	0.738
NCI-H1651	0.869	0.679	0.389	0.623	0.455	0.2	0.157	0.175	0.187	0.178	0.714	0.56	0.58	0.522	0.347	0.828	0.666	0.769	0.892	0.647
NCI-H1666	0.612	0.633	0.538	0.662	0.486	0.751	0.715	0.736	0.7	0.72	0.8	0.736	0.698	0.712	0.669	0.825	0.543	0.639	0.909	0.383
NCI-H1734	0.284	0.247	0.263	0.206	0.207	0.684	0.545	0.605	0.673	0.463	0.445	0.828	0.421	0.516	0.295	1.27	1.07	0.975	1.01	0.72
NCI-H1755	0.639	0.531	0.512	0.663	0.488	0.855	0.842	0.893	0.896	0.82	0.713	0.715	0.703	0.786	0.615	1.11	0.982	1.08	1.16	0.992
NCI-H1793	0.401	0.354	–	0.206	0.174	1.05	0.708	0.799	1.02	0.898	0.471	0.523	0.292	0.328	0.218	0.937	0.557	0.679	1.03	0.971
NCI-H1915	0.558	0.44	–	0.533	0.385	0.249	0.24	0.267	0.206	0.146	0.284	0.278	0.261	0.265	0.282	1.04	0.984	0.969	1.04	0.834
NCI-H1944	0.274	0.268	0.213	0.254	0.234	0.455	0.412	0.368	0.398	0.367	0.455	0.424	0.449	0.461	0.395	0.932	0.669	0.659	0.835	0.768
NCI-H1975	1.11	0.684	0.412	0.293	0.23	0.869	0.708	0.784	0.731	0.499	0.428	0.346	0.345	0.35	0.267	1.1	0.865	0.858	0.863	0.464
NCI-H1993	0.593	0.582	0.53	0.614	0.573	1.26	0.907	0.987	1.15	0.995	0.639	0.602	0.506	0.601	0.703	0.855	0.774	0.88	0.809	0.789
NCI-H2009	0.891	0.737	0.497	0.659	0.297	0.831	0.826	0.602	0.619	0.583	0.386	0.36	0.33	0.383	0.266	1.01	0.955	0.885	0.741	0.478
NCI-H2023	0.462	0.319	0.242	0.283	0.169	0.504	0.444	0.4	0.44	0.252	0.243	0.22	0.166	0.199	0.182	0.903	0.745	0.886	0.764	0.59
NCI-H2085	0.9	0.804	0.688	0.609	0.529	0.813	0.768	0.737	0.702	0.429	0.543	0.506	0.487	0.576	0.508	0.731	0.71	0.739	0.926	0.654
NCI-H2087	0.255	0.338	0.215	0.225	0.155	0.708	0.519	0.572	0.563	0.564	0.322	0.294	0.207	0.279	0.223	1.14	1.09	1.34	1.36	0.877
NCI-H2126	0.911	0.807	0.727	0.791	0.479	0.97	0.928	0.895	0.885	0.859	0.582	0.629	0.585	0.608	0.396	0.814	0.741	0.768	0.85	0.693
NCI-H2170	0.815	0.708	0.655	0.636	0.285	0.707	0.605	0.575	0.587	0.448	0.48	0.423	0.426	0.505	0.349	0.309	0.238	0.278	0.275	0.234
